Reference: article PMC4821887, “Identification of chemicals that mimic transcriptional changes associated with autism, brain aging and neurodegeneration” (Nature Communications, 2016)

Tested on: mouse cortical cultures
Test: RNA-seq differential expression (DESeq) against matched vehicle
Format: cell-based
Parameters: key to MeanFenamidone Bcl11b / MeanFenamidone Slc12a4 / MeanFenamidone Abca1 / MeanFenamidone Hmox1 / MeanFenamidone Il1rap / MeanFenamidone Cyba / MeanFenamidone Narf / MeanFenamidone Bnip3 / MeanFenamidone Amotl2 / MeanFenamidone Gad2 / MeanFenamidone Vsnl1 / MeanFenamidone Fam178a: DESeq mean of counts over RefSeq exons
Procedure: Figure 4 Cluster 2 chemicals alter expression of a common set of genes. […] RNA-seq was performed in quadruplicate after treating cortical cultures with fenamidone (10 μM) or pyraclostrobin (0.1 μM) for 24 h (n=3 biological replicates) and compared with matched vehicle controls using DESeq to detect differentially expressed genes, listed in Supplementary Data 4.
Cultures were treated with the non-cytotoxic dose of each chemical, by exchanging half of the original medium with chemicals at 2 × concentration in prewarmed feeding medium, on DIV 7 for 24 h in 12-well plates at a density of 5 × 10^5 cells per well. RNA was isolated using RNeasy plus mini kit (Cat. #74134, Qiagen). […]. Samples were further assessed for quality using either an Agilent Bioanalyzer 2100 or TapeStation 2200 to obtain a RIN. RIN values exceeding 7 were used for sequencing. RNA samples were used to generate and barcode complementary DNA libraries using the TruSeq RNA Library Preparation Kit at the UNC High Throughput Sequencing Facility. Pools of 24 multiplexed samples were sequenced per lane on an Illumina HiSeq 2500 using 50-bp paired-end reads.
RNA-seq reads were filtered using TagDust and aligned to the reference mouse genome (mm9) with TopHat using default parameters. Reads aligning to ribosomal RNA genes were removed. Transcript abundance was estimated by computing Reads per kilobase per million mapped reads (RPKM) using RefSeq gene models aggregated by gene symbol. For differential expression analyses, raw counts over RefSeq exons were used, and then were compared across samples using DESeq[62].

CSC1=N[C@@](C)(c2ccccc2)C(=O)N1Nc1ccccc1 [fenamidone]
Differentially expressed genes (DESeq) compared between the two fungicides (fenamidone 10 μM or pyraclostrobin 0.1 μM, 24 h): up- and downregulate a largely overlapping set of genes | MeanFenamidone (DESeq mean normalized counts) (gene 2810011L19Rik, Fenamidone, 4 reps, vs matched vehicle): 45.3905 | MeanFenamidone (gene 3632451O06Rik): 64.8489 | log2FoldChange (gene 3632451O06Rik): -1.594 | MeanFenamidone (gene 4931428F04Rik): 315.322 | log2FoldChange (gene 4931428F04Rik): -1.331 | MeanFenamidone (gene 4933426M11Rik): 495.966 | log2FoldChange (gene 4933426M11Rik): 1.2253 | MeanFenamidone 9930013L23Rik (gene 9930013L23Rik, DESeq mean, 4 reps): 645.322 | log2FoldChange 9930013L23Rik (gene 9930013L23Rik, vs vehicle, 4 reps): 2.2987 | MeanFenamidone AF357359 (gene AF357359, DESeq mean, 4 reps): 31.2414 | log2FoldChange AF357359 (gene AF357359, vs vehicle, 4 reps): -2.02 | MeanFenamidone Abca1 (gene Abca1, DESeq mean, 4 reps): 1327.24 | log2FoldChange Abca1 (gene Abca1, vs vehicle, 4 reps): 1.708 | MeanFenamidone Acadl (gene Acadl, DESeq mean, 4 reps): 174.046 | log2FoldChange Acadl (gene Acadl, vs vehicle, 4 reps): 2.185 | MeanFenamidone Acadvl (gene Acadvl, DESeq mean, 4 reps): 272.079 | log2FoldChange Acadvl (gene Acadvl, vs vehicle, 4 reps): 1.576 | MeanFenamidone Acsbg1 (gene Acsbg1, DESeq mean, 4 reps): 241.134 | log2FoldChange Acsbg1 (gene Acsbg1, vs vehicle, 4 reps): 1.737 | MeanFenamidone Acta2 (gene Acta2, DESeq mean, 4 reps): 2838.59 | log2FoldChange Acta2 (gene Acta2, vs vehicle, 4 reps): 3.4285 | MeanFenamidone Actn1 (gene Actn1, DESeq mean, 4 reps): 711.955 | log2FoldChange Actn1 (gene Actn1, vs vehicle, 4 reps): 2.284 | MeanFenamidone Adamts5 (gene Adamts5, DESeq mean, 4 reps): 85.7871 | log2FoldChange Adamts5 (gene Adamts5, vs vehicle, 4 reps): 2.142 | MeanFenamidone Adarb2 (gene Adarb2, DESeq mean, 4 reps): 8.295 | log2FoldChange Adarb2 (gene Adarb2, vs vehicle, 4 reps): -3.192 | MeanFenamidone Agap2 (gene Agap2, DESeq mean, 4 reps): 683.65 | log2FoldChange Agap2 (gene Agap2, vs vehicle, 4 reps): -1.416 | MeanFenamidone Ahnak (gene Ahnak, DESeq mean, 4 reps): 1224 | log2FoldChange Ahnak (gene Ahnak, vs vehicle, 4 reps): 2.684 | MeanFenamidone Ajuba (gene Ajuba, DESeq mean, 4 reps): 246.575 | log2FoldChange Ajuba (gene Ajuba, vs vehicle, 4 reps): 2.23 | MeanFenamidone (gene Akap2): 757.95 | log2FoldChange (gene Akap2): 1.126 | MeanFenamidone Aldh4a1 (gene Aldh4a1, DESeq mean, 4 reps): 305.431 | log2FoldChange Aldh4a1 (gene Aldh4a1, vs vehicle, 4 reps): 1.584 | MeanFenamidone Amotl1 (gene Amotl1, DESeq mean, 4 reps): 463.485 | log2FoldChange Amotl1 (gene Amotl1, vs vehicle, 4 reps): 1.802 | MeanFenamidone Amotl2 (gene Amotl2, DESeq mean, 4 reps): 666.038 | log2FoldChange Amotl2 (gene Amotl2, vs vehicle, 4 reps): 1.759 | MeanFenamidone (gene Anxa2): 244.58 | log2FoldChange (gene Anxa2): 2.151 | MeanFenamidone Anxa3 (gene Anxa3, DESeq mean, 4 reps): 244.534 | log2FoldChange Anxa3 (gene Anxa3, vs vehicle, 4 reps): 3.475 | MeanFenamidone Arhgap18 (gene Arhgap18, DESeq mean, 4 reps): 128.165 | log2FoldChange Arhgap18 (gene Arhgap18, vs vehicle, 4 reps): 1.989 | MeanFenamidone (gene Arhgdig): 118.591 | log2FoldChange (gene Arhgdig): -1.355 | MeanFenamidone (gene Arhgef40): 160.321 | log2FoldChange (gene Arhgef40): 1.457 | MeanFenamidone Asah1 (gene Asah1, DESeq mean, 4 reps): 348.017 | log2FoldChange Asah1 (gene Asah1, vs vehicle, 4 reps): 1.772 | MeanFenamidone Ass1 (gene Ass1, DESeq mean, 4 reps): 83.2354 | log2FoldChange Ass1 (gene Ass1, vs vehicle, 4 reps): 3.013 | MeanFenamidone Atf3 (gene Atf3, DESeq mean, 4 reps): 64.246 | log2FoldChange Atf3 (gene Atf3, vs vehicle, 4 reps): 2.3746 | MeanFenamidone Atf5 (gene Atf5, DESeq mean, 4 reps): 765.032 | log2FoldChange Atf5 (gene Atf5, vs vehicle, 4 reps): 1.876 | MeanFenamidone Atl1 (gene Atl1, DESeq mean, 4 reps): 97.9838 | log2FoldChange Atl1 (gene Atl1, vs vehicle, 4 reps): -1.537 | MeanFenamidone Axl (gene Axl, DESeq mean, 4 reps): 322.064 | log2FoldChange Axl (gene Axl, vs vehicle, 4 reps): 2.208 | MeanFenamidone (gene Bak1): 236.594 | log2FoldChange (gene Bak1): 1.306 | MeanFenamidone Bcl11b (gene Bcl11b, DESeq mean, 4 reps): 202.325 | log2FoldChange Bcl11b (gene Bcl11b, vs vehicle, 4 reps): -1.501 | MeanFenamidone Bhlhe41 (gene Bhlhe41, DESeq mean, 4 reps): 115.206 | log2FoldChange Bhlhe41 (gene Bhlhe41, vs vehicle, 4 reps): 2.168 | MeanFenamidone (gene Bmp1): 153.886 | log2FoldChange (gene Bmp1): 1.3853 | MeanFenamidone Bnip3 (gene Bnip3, DESeq mean, 4 reps): 102.453 | log2FoldChange Bnip3 (gene Bnip3, vs vehicle, 4 reps): -1.924 | MeanFenamidone (gene Bnip3l): 236.54 | log2FoldChange (gene Bnip3l): -1.119 | MeanFenamidone (gene Bsn): 443.744 | log2FoldChange (gene Bsn): -1.148 | MeanFenamidone (gene Cad): 202.997 | log2FoldChange (gene Cad): 1.187 | MeanFenamidone (gene Cadps): 260.197 | log2FoldChange (gene Cadps): -1.6246 | MeanFenamidone Cald1 (gene Cald1, DESeq mean, 4 reps): 1843.23 | log2FoldChange Cald1 (gene Cald1, vs vehicle, 4 reps): 1.947 | MeanFenamidone (gene Calm2): 809.868 | log2FoldChange (gene Calm2): -1.097 | MeanFenamidone Camk2a (gene Camk2a, DESeq mean, 4 reps): 319.844 | log2FoldChange Camk2a (gene Camk2a, vs vehicle, 4 reps): -1.451 | MeanFenamidone (gene Camk2n1): 296.66 | log2FoldChange (gene Camk2n1): -1.023 | MeanFenamidone Camk4 (gene Camk4, DESeq mean, 4 reps): 490.278 | log2FoldChange Camk4 (gene Camk4, vs vehicle, 4 reps): -1.593 | MeanFenamidone Camta1 (gene Camta1, DESeq mean, 4 reps): 338.624 | log2FoldChange Camta1 (gene Camta1, vs vehicle, 4 reps): -1.578 | MeanFenamidone Caskin2 (gene Caskin2, DESeq mean, 4 reps): 130.097 | log2FoldChange Caskin2 (gene Caskin2, vs vehicle, 4 reps): 2.297 | MeanFenamidone Ccdc141 (gene Ccdc141, DESeq mean, 4 reps): 72.7622 | log2FoldChange Ccdc141 (gene Ccdc141, vs vehicle, 4 reps): 2.666 | MeanFenamidone Ccnd3 (gene Ccnd3, DESeq mean, 4 reps): 321.074 | log2FoldChange Ccnd3 (gene Ccnd3, vs vehicle, 4 reps): 1.783 | MeanFenamidone Ccng1 (gene Ccng1, DESeq mean, 4 reps): 4010.45 | log2FoldChange Ccng1 (gene Ccng1, vs vehicle, 4 reps): 1.5262 | MeanFenamidone Cd63 (gene Cd63, DESeq mean, 4 reps): 136.407 | log2FoldChange Cd63 (gene Cd63, vs vehicle, 4 reps): 2.342 | MeanFenamidone Cd68 (gene Cd68, DESeq mean, 4 reps): 127.152 | log2FoldChange Cd68 (gene Cd68, vs vehicle, 4 reps): 2.839 | MeanFenamidone Cd151 (gene Cd151, DESeq mean, 4 reps): 686.042 | log2FoldChange Cd151 (gene Cd151, vs vehicle, 4 reps): 1.998 | MeanFenamidone Cdc42ep1 (gene Cdc42ep1, DESeq mean, 4 reps): 242.014 | log2FoldChange Cdc42ep1 (gene Cdc42ep1, vs vehicle, 4 reps): 2.019 | MeanFenamidone Cdkl2 (gene Cdkl2, DESeq mean, 4 reps): 148.718 | log2FoldChange Cdkl2 (gene Cdkl2, vs vehicle, 4 reps): -1.498 | MeanFenamidone Cdkn1a (gene Cdkn1a, DESeq mean, 4 reps): 1626.53 | log2FoldChange Cdkn1a (gene Cdkn1a, vs vehicle, 4 reps): 1.6849 | MeanFenamidone (gene Cercam): 80.354 | log2FoldChange (gene Cercam): 1.731 | MeanFenamidone (gene Chga): 168.446 | log2FoldChange (gene Chga): -1.21 | MeanFenamidone (gene Chl1): 1683.83 | log2FoldChange (gene Chl1): -1.224 | MeanFenamidone (gene Ckb): 1311.75 | log2FoldChange (gene Ckb): 1.6 | MeanFenamidone (gene Clec7a): 31.0423 | log2FoldChange (gene Clec7a): 2.927 | MeanFenamidone Cln5 (gene Cln5, DESeq mean, 4 reps): 194.081 | log2FoldChange Cln5 (gene Cln5, vs vehicle, 4 reps): 2.017 | MeanFenamidone Cnr1 (gene Cnr1, DESeq mean, 4 reps): 426.988 | log2FoldChange Cnr1 (gene Cnr1, vs vehicle, 4 reps): -1.344 | MeanFenamidone Col4a5 (gene Col4a5, DESeq mean, 4 reps): 502.413 | log2FoldChange Col4a5 (gene Col4a5, vs vehicle, 4 reps): 2.312 | MeanFenamidone (gene Col4a6): 110.458 | log2FoldChange (gene Col4a6): 2.156 | MeanFenamidone Col12a1 (gene Col12a1, DESeq mean, 4 reps): 444.559 | log2FoldChange Col12a1 (gene Col12a1, vs vehicle, 4 reps): 2.385 | MeanFenamidone Cpeb1 (gene Cpeb1, DESeq mean, 4 reps): 116.043 | log2FoldChange Cpeb1 (gene Cpeb1, vs vehicle, 4 reps): 2.171 | MeanFenamidone Csf1 (gene Csf1, DESeq mean, 4 reps): 1349.7 | log2FoldChange Csf1 (gene Csf1, vs vehicle, 4 reps): 2.395 | MeanFenamidone Csrnp3 (gene Csrnp3, DESeq mean, 4 reps): 419.96 | log2FoldChange Csrnp3 (gene Csrnp3, vs vehicle, 4 reps): -1.31 | MeanFenamidone Ctnna1 (gene Ctnna1, DESeq mean, 4 reps): 850.825 | log2FoldChange Ctnna1 (gene Ctnna1, vs vehicle, 4 reps): 1.929 | MeanFenamidone Ctsd (gene Ctsd, DESeq mean, 4 reps): 3727.98 | log2FoldChange Ctsd (gene Ctsd, vs vehicle, 4 reps): 1.609 | MeanFenamidone Ctsl (gene Ctsl, DESeq mean, 4 reps): 1179.87 | log2FoldChange Ctsl (gene Ctsl, vs vehicle, 4 reps): 1.543 | MeanFenamidone Cyba (gene Cyba, DESeq mean, 4 reps): 37.6864 | log2FoldChange Cyba (gene Cyba, vs vehicle, 4 reps): 3.26 | MeanFenamidone Cyr61 (gene Cyr61, DESeq mean, 4 reps): 1421.12 | log2FoldChange Cyr61 (gene Cyr61, vs vehicle, 4 reps): 2.66 | MeanFenamidone D130043K22Rik (gene D130043K22Rik, DESeq mean, 4 reps): 33.8314 | log2FoldChange D130043K22Rik (gene D130043K22Rik, vs vehicle, 4 reps): -1.82 | MeanFenamidone Daam2 (gene Daam2, DESeq mean, 4 reps): 263.262 | log2FoldChange Daam2 (gene Daam2, vs vehicle, 4 reps): 1.9757 | MeanFenamidone (gene Darc): 104.469 | log2FoldChange (gene Darc): -1.472
